# Entries after “also recorded” stand apart in the source; their conditions may differ. Square brackets hold non-standard residues; d marks the D form. Peptide text beside a SMILES is read from it. * marks the point of attachment. ξ: configuration not given here. d(pY) = N[C@H](Cc1ccc(OP(=O)(O)O)cc1)C(=O)O; NBD = O=[N+]([O-])c1ccc(*)c2nonc12; ξ2Nal = NC(Cc1ccc2ccccc2c1)C(=O)O; βAla = NCCC(=O)O
# Legend:
# HeLa cells [1] = assay: Pericellular hydrogelation on HeLa cells (optical images); format: cell-based, human; settings: 560 μM, 2 hours at 37° C.
# Description: An 11.2 mM (8.09 mg/mL) stock solution of D-2a was prepared in ddH2O. The pH was adjusted to 7.4 using 1N NaOH. 2×10^5 cells in exponential growth phase were seeded in 35 mm Petri dish with 1 mL complete culture medium. Following overnight incubation, the medium was replaced with 1 mL of medium containing D-2a (diluted from the stock solution immediately prior to use). Petri dishes were incubated at 37° C. for two hours. Next, dishes were removed from the incubator and titled on a bench to visualize the pericellular hydrogel. Prior to co-incubation with phosphatase inhibitors, cells were washed three times with medium containing Pierce phosphatase inhibitor cocktail (Thermo) (contains sodium floride, sodium orthovanadate, sodium pyrophosphate, and beta-glycerophosphate). Next, 1 mL of medium containing both the inhibitor cocktail and D-2a was applied to the cells.
# [2] = test system: secretory phosphatases present in HeLa cell conditioned medium; assay: Hydrogelation in HeLa cell conditioned medium; format: biochemical, human; settings: 560 μM, 48 hours
# Description: 2×10^5 of cells in exponential growth phase were seeded in a 35 mm Petri dish with 1 mL complete culture medium. Following overnight incubation, 1 mL of new medium was replaced and incubated for 24 h at 5% CO2, 37° C. The medium was next removed and centrifuged at 10,000 rpm for 5 minutes. The suspension was placed into a 1.5 mL Eppendorf® tube and stored at −20° C. Stored conditioned medium was thawed and warmed to 37° C. in water bath immediately before use.
# HeLa cell conditioned medium (“CM”) dephosphorylates D-2a to form D-2b nanofibrils.
# HeLa cells [3] = assay: Cell adhesion assay; format: cell-based, human; settings: 560 μM, trypsinized HeLa cells, at 4 hours
# Description: Cells in exponential growth phase were detached using 0.25% trypsin-EDTA. After neutralizing trypsin by addition of complete culture medium, the cells were collected by centrifuge (1000 rpm, 3 min). The cell pellet was suspended by addition of culture medium to a concentration of 4×10^5 cells/mL. 1 mL of the cell suspension was mixed with 1 mL of 2×D-2a or D-2b containing culture media. The resulting solutions were added into 96 well plate at 100 μL/well. After the desired time of incubation at 37° C., 5% CO2, the solution was gently removed, and then 100 μL of culture medium and 10 μL of 5 mg/mL MTT were added to each well. Following 4 hour incubation in the dark, 100 μL of 10% SDS with 0.01M HCl was added to each well to stop the reduction reaction and to dissolve the purple. After incubation of the cells at 37° C. for overnight, the viability was measured. Data represent the mean±standard deviation of three independent experiments.
# HeLa cells [4] = assay: Cell viability assay (MTT), HeLa; format: cell-based, human; settings: 280 μM, direct addition
# Description: Cells in exponential growth phase were seeded in a 96 well plate at a concentration of 2×10^4 cells/well. The cells were allowed to attach to the wells for 24 hours at 37° C., 5% CO2. The culture medium was removed and 100 μL culture medium containing compounds (immediately diluted from fresh prepared stock solution of 10 mM) at gradient concentrations (0 μM as the control) was placed into each well. After culturing at 37° C., 5% CO2 for 48 hours, each well was added by 10 μL of 5 mg/mL MTT (3-(4,5-dimethylthiazoL-2-yl)-2,5-diphenyltetrazolium bromide), and the plated cells were incubated in the dark for 4 hours. 100 μL 10% SDS with 0.01M HCl was added to each well to stop the reduction reaction and to dissolve the purple. After overnight incubation of the cells at 37° C., the OD at 595 nm of the solution was measured in a microplate reader. Data represent the mean±standard deviation of three independent experiments.
# HeLa cells [5] = assay: Fluorescence imaging of HeLa/HS-5 co-culture, HeLa; format: cell-based, human; settings: co-culture of HeLa and HS-5, 500 μM, 6 and 24 hours
# Excerpt: (§1) FIGS. 17A-C illustrates that phosphatases catalyze self-assembly to form fluorescent nanofibrils with high spatiotemporal resolution. FIG. 17A is an illustration of phosphatase-catalyzed spatiotemporal formation of fluorescent pericellular nanofibrils in co-culture mimicking tumor microenvironment. […] ALP or tyrosine phosphatase (“PTP”) converts D-3a to D-3b, which self-assembles in physiological condition to form fluorescent nanofibrils of D-3b. FIG. 17C contains a pair of fluorescent images showing that the fluorescent nanofibrils of D-3b selectively form on HeLa cells (the cancer cell, identified by arrows) and […] (the stromal cell, indicated by the arrow heads) in the co-culture of HeLa and HS-5. [D-3a]=500 μM, 6 hours (left panel) and 24 hours (right panel) incubation (scale bar=10 μm, the nuclei stained by Hoechst 33342, a DNA dye for live cells).
# (§2) Co-culture of cancer cell (i.e., HeLa cells) and stromal cells (i.e., HS-5 cells) mimics the tumor microenvironment (Straussman et al., Nature 487:500-U118 (2012), which is hereby incorporated by reference in its entirety). […] This approach also offers a method for the visualization of live cells that express ectophosphatases.
# HS-5 cells = assay: Fluorescence imaging of HeLa/HS-5 co-culture, HS-5; format: cell-based; settings: co-culture of HeLa and HS-5, 500 μM, 6 and 24 hours
# Excerpt: as §1, §2
# PC-12 Adh = assay: Ectophosphatase imaging of live cells, PC-12 Adh; format: cell-based, rat; settings: 500 μM, 24 hour incubation
# Description: (§3) FIGS. 18A-H show imaging and ectophosphatase quantification of live cells incubated with D3-a. FIGS. 18A-F show confocal microscopy images. […] The scale bar is […]. The images in FIG. 18B show the time course of fluorescence on HeLa cells incubated with D3-a for 30 minutes, 1 hour, 3 hours, and 6 hours, respectively. Nuclei were stained with Hoechst 33342. FIG. 18C is a 3D stacked z-scan image of fluorescence on HeLa cells treated with D-3a for 6 hours. […] Scale bar: 100 μm for FIG. 18B, upper panels and FIG. 18D; 10 μm for FIG. 18B, lower panels, FIG. 18E, and FIG. 18F. [D-3a]=500 μM for enhancing spatiotemporal resolution. […] FIG. 18H is a plot of time versus the fluorescence of pericellular nanofibrils on HeLa cells treated with D-3a. The initial cell number is 5,000 cells/well. All the confocal microscope images were taken after removing the medium with D-3a and then adding the live cell image solution (Invitrogen Life Technologies A14291DJ). [D3-a]=500 μM for FIGS. 18G-H.
# (§4) To validate D-3a as an effective agent for the detection of phosphatase activity on a wide variety of cells, the cellular ectophosphatase activity of various cell lines, including PC-12, Capan-2, A375, Ect1/E6E7, and C3H10T1/2, was evaluated following 24 hour incubation of cells with 500 μM D-3a (FIG. 18A).
# Capan-2 = assay: Ectophosphatase imaging of live cells, Capan-2; format: cell-based, human; settings: 500 μM, 24 hour incubation
# Description: as §3, §4
# A375 = assay: Ectophosphatase imaging of live cells, A375; format: cell-based, human; settings: 500 μM, 24 hour incubation
# Description: as §3, §4
# Ect1/E6E7 = assay: Ectophosphatase imaging of live cells, Ect1/E6E7; format: cell-based, human; settings: 500 μM, 24 hour incubation
# Description: as §3, §4
# C3H10T1/2 = assay: Ectophosphatase imaging of live cells, C3H10T1/2; format: cell-based, murine; settings: 500 μM, 24 hour incubation
# Description: as §3, §4
# HeLa cells [6] = assay: Ectophosphatase imaging of live cells, HeLa time course; format: cell-based, human
# Description: as §3
# To investigate the spatiotemporal resolution of D-3a fluorescence, HeLa cells were incubated with 500 μM D-3a for varying amounts of time (30 minutes, 1 hour, 3 hours, and 6 hours, respectively) and imaged by confocal microscopy (FIG. 18B). […] Quantification of ectophosphatase activity on the surface of HeLa cells treated with 500 μM of D-3a is shown in FIGS. 18G-18H as a function of cell number or time, respectively.
# [7] = test system: Alkaline-phosphatase (“ALP”); settings: D-3a; ALP (2 U/ml) in FIG. 38B
# Excerpt: […] Scale bar=100 nm.
# Napthalene capped tripeptide precursor molecule D-2a and hydrogelator molecule D-2b, synthesized according to Yang et al. (Small 3:558-562 (2007), which is hereby incorporated by reference in its entirety), are comprised of the tripeptide D-Phe-D-Phe-D-Tyr (FIG. 1B). The D-Tyr of D-2a is phosphorylated (FIG. 1B).
# HeLa cells [8] = assay: LC-MS composition of pericellular hydrogel/nanofibrils and suspension medium of HeLa cells; format: in vitro ADME, human; settings: HeLa cells incubated with precursor at 560 μM at 37° C. for 12 hours
compound,measurement,setting,value
Nap-D-Phe-D-Phe-D-Tyr [D-2b],Pericellular hydrogel formation on HeLa cells,HeLa cells [1],hardly any hydrogelation; also recorded: does not form pericellular hydrogels
same,Hydrogel formation in HeLa cell conditioned medium,[2],fails to form a hydrogel
same,Cells reattached to surface,HeLa cells [3],> 80%
same,Growth inhibition of HeLa cells,HeLa cells [4],hardly inhibits the growth
"O=C(CCNc1ccc([N+](=O)[O-])c2nonc12)NC(Cc1ccc2ccccc2c1)C(=O)N[C@H](Cc1ccccc1)C(=O)N[C@H](Cc1ccccc1)C(=O)N[C@H](Cc1ccc(OP(=O)(O)O)cc1)C(=O)O (stereo partly drawn) [D-3a, NBD-D-Nal-D-Phe-D-Phe-D-pTyr] ({NBD-βAla}-[ξ2Nal][dF][dF][d(pY)]-OH)",NBD fluorescence on cancer cells in co-culture,HeLa cells [5],selective formation of bright yellow (NBD) fluorescence on the surface of the cancer cells
same,NBD fluorescence on stromal cells in co-culture,HS-5 cells,only yellow puncta are observed inside the HS-5 stromal cells
same,Cell surface exhibiting NBD fluorescence,PC-12 Adh,more than 50%
same,NBD fluorescence,Capan-2,weak
same,NBD fluorescence,A375,no fluorescence
same,NBD fluorescence,Ect1/E6E7,strong fluorescence in the cytosol
same,NBD fluorescence,C3H10T1/2,sporadic fluorescence on cell surface
same,Cell surface fluorescence over time,"HeLa cells [6]; 500 μM, 30 minutes, 1 hour, 3 hours, 6 hours",increased cell surface fluorescence with time
same,Fluorescence after re-incubation in fresh medium,"HeLa cells [6]; 6 hour incubation with D-3a, then fresh medium for 24 hours",only nuclear dye fluorescence
same,Hydrogel formation after phosphatase-catalyzed dephosphorylation,[7],self-assembles to form the fluorescent nanonets/hydrogel
O=C(Cc1ccc2ccccc2c1)N[C@@H](Cc1ccccc1)C(=O)N[C@@H](Cc1ccccc1)C(=O)N[C@@H](Cc1ccc(OP(=O)(O)O)cc1)C(=O)O [L-2a],L-2b in suspension medium,HeLa cells [8],176.6 µM
same,L-3 in suspension medium,HeLa cells [8],270.4 µM

# Reference: patent publication US11155576B2, “Synthetic peptides, enzymatic formation of pericellular hydrogels/nanofibrils, and methods of use” (BRANDEIS UNIVERSITY, priority 2014, dated 2021)
